Tests used:
[1] = 101 kPa, Liquid, Vibrating tube method
[2] = xn = mol fraction of the nth substance listed; conditions: 101 kPa, Liquid, Vibrating tube method, x2 = 0

NCCO [2-aminoethan-1-ol]
[1]
Conditions | mass density [kg/m3]
293.16 K | 1016.34
303.14 K | 1008.4
313.14 K | 1000.41
323.15 K | 992.384
333.14 K | 984.302
343.14 K | 976.141
353.14 K | 967.893
363.15 K | 959.536

CN(CCO)CCO [N-methyldiethanolamine]
[1]
Conditions | mass density [kg/m3]
293.15 K | 1040.6
303.15 K | 1033.02
313.15 K | 1025.4
323.15 K | 1017.74
333.15 K | 1010.03
343.15 K | 1002.25
353.14 K | 994.404
363.15 K | 986.471

OCCNCCO [diethanolamine]
[1]
Conditions | mass density [kg/m3]
293.15 K | 1097.61
303.15 K | 1091.17
313.15 K | 1084.6
323.15 K | 1077.88
333.14 K | 1071.11
343.14 K | 1064.25
353.14 K | 1057.31
363.15 K | 1050.24

C[S+](C)[O-] [dimethyl sulfoxide]
[1]
Conditions | mass density [kg/m3]
293.14 K | 1100.87
303.15 K | 1090.81
313.14 K | 1080.77
323.14 K | 1070.73
333.15 K | 1060.68
343.14 K | 1050.62
353.14 K | 1040.54
363.15 K | 1030.43

C[S+](C)[O-] [dimethyl sulfoxide] + CN(CCO)CCO
[2]
Conditions | mass density [kg/m3]
293.14 K | 1100.87
303.15 K | 1090.81
313.14 K | 1080.77
323.14 K | 1070.73
333.15 K | 1060.68
343.14 K | 1050.62
353.14 K | 1040.54
363.15 K | 1030.43

C[S+](C)[O-] [dimethyl sulfoxide] + NCCO
[2]
Conditions | mass density [kg/m3]
293.14 K | 1100.87
303.15 K | 1090.81
313.14 K | 1080.77
323.14 K | 1070.73
333.15 K | 1060.68
343.14 K | 1050.62
353.14 K | 1040.54
363.15 K | 1030.43

C[S+](C)[O-] [dimethyl sulfoxide] + OCCNCCO
[2]
Conditions | mass density [kg/m3]
293.14 K | 1100.87
303.15 K | 1090.81
313.14 K | 1080.77
323.14 K | 1070.73
333.15 K | 1060.68
343.14 K | 1050.62
353.14 K | 1040.54
363.15 K | 1030.43

Source: the NIST ThermoML archive (doi:10.1016/j.jct.2012.08.021)
